This is an account of results in ChEMBL document CHEMBL1127122, “Neurotensin receptor binding and antinociceptive activity for lipophilic N-amido neurotensin(913) analogs” (Bioorg Med Chem Lett, 1993).

Test [1] deals with Mus musculus. Kind of test: Analgesic activity in fasted male mice in phenylquinone writhing assay 10 min after i.c.v. administration. The format is functional.
Test [2] relates to Mus musculus. Kind of test: Analgesic activity of i.v. administered compound in fasted male mice at 10 min. interval was determined using phenylquinone writhing assay. The format is functional. The settings on record: iv. Background: Writhing tests count abdominal constrictions after an irritant is injected.
The subject of test [3] is Mus musculus. Description: Analgesic activity in fasted male mice in phenylquinone writhing assay 5 min after i.c.v. administration. The format is functional.
For test [4], the system named is Mus musculus. Description: Analgesic activity of i.v. administered compound in fasted male mice at 5 min. interval was determined using phenylquinone writhing assay. It is filed as functional. The settings on record: iv.
The target of test [5] is Mu-type opioid receptor (Cavia porcellus, UniProt P97266). Kind of test: Compound was evaluated for binding affinity against mu receptor by opioid receptor binding assay: Inactive.
Chain of Mu-type opioid receptor (P97266 whole entry): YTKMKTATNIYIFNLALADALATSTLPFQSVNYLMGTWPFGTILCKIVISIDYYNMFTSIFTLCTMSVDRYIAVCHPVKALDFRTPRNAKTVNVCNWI
Test [6] relates to Mus musculus. Description: Analgesic activity in fasted male mice in phenylquinone writhing assay 40 min after i.c.v. administration. The format is functional.
Test [7] concerns the target Kappa-type opioid receptor (Cavia porcellus, UniProt P41144). Kind of test: Compound was evaluated for binding affinity against Opioid receptor kappa 1 by opioid receptor binding assay: Inactive.
Test [8] deals with Neurotensin receptor type 1 (Rattus norvegicus, UniProt P20789). Kind of test: Binding affinity against rat neurotensin receptor.
Chain of Neurotensin receptor type 1 (P20789 whole entry): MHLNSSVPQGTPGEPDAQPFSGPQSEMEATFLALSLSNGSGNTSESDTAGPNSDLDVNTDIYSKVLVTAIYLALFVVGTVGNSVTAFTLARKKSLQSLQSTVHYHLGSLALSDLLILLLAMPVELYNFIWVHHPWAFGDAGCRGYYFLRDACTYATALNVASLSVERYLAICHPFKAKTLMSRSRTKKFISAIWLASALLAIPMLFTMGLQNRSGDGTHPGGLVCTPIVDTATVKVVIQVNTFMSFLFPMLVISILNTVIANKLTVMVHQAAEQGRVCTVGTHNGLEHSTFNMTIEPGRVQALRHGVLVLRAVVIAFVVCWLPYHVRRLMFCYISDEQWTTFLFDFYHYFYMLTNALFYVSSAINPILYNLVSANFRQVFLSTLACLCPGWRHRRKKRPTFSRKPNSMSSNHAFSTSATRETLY

Non-standard residues stand in square brackets, D forms with d. Residues, ends and D or L forms follow the SMILES beside them. *: point of attachment. Adamantane1carbonyl = O=C(C12CC3CC(CC(C3)C1)C2)*; Benzoyl(4-Ph) = O=C(c1ccc(-c2ccccc2)cc1)*; Stearoyl = CCCCCCCCCCCCCCCCCC(=O)*; X3 = O=C1NC2CSC(CCCCC(=O)*)C2N1; Nicotinoyl = O=C(c1cccnc1)*; Orn = NCCC[C@H](N)C(=O)O; X2 = O=C(CC1CCC2CCCC21)*; X4 = O=C(CC1CC2CCC1C2)*; Bz = O=C(c1ccccc1)* Where only a bound is given, the exact number is not on record here.

Chain of Kappa-type opioid receptor (P41144 whole entry): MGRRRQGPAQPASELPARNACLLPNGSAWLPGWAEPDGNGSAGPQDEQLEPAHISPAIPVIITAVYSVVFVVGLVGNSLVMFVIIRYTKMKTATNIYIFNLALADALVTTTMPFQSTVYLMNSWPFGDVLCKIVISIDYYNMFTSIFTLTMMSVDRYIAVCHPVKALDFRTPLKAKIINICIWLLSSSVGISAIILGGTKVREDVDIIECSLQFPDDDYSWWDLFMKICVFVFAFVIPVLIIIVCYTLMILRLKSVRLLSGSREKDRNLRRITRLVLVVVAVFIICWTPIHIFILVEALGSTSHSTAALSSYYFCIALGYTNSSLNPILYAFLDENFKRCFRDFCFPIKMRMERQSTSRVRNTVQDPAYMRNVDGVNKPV

One may read the Ki as the dissociation constant of the complex between target and ligand, obtained from inhibition or displacement. Lower therefore signals higher affinity. Regarding `CC[C@H](C)[C@H](NC(=O)[C@H](Cc1ccc(O)cc1)NC(=O)[C@@H]1CCCN1C(=O)[C@H](CCCCN)NC(=O)C12CC3CC(CC(C3)C1)C2)C(=O)N[C@@H](CC(C)C)C(=O)O` (Adamantane1carbonyl-KPYIL-OH), the ED50 in test [1] amounted to 0.22 ug mouse-1; in test [2], 2.8 mg/kg; in test [3], 0.15 ug mouse-1; in test [4], 2.2 mg/kg; in test [6], 0.71 ug mouse-1. The Ki in test [5] and in test [7] was above 10000 nM each time.

For `CC[C@H](C)[C@H](NC(=O)[C@H](Cc1ccc(O)cc1)NC(=O)[C@@H]1CCCN1C(=O)[C@H](CCCCN)NC(=O)CC1CC2CCC1C2)C(=O)N[C@@H](CC(C)C)C(=O)O` (stereo partly specified) (X4-KPYIL-OH), the ED50 in test [1] was 0.29 ug mouse-1; in test [2], 19 mg/kg; in test [3], 0.018 ug mouse-1; in test [4], 24 mg/kg; in test [6], 2.7 ug mouse-1. The same compound had a Ki in test [8] of 1000 nM.

With `CC[C@H](C)[C@H](NC(=O)[C@H](Cc1ccc(O)cc1)NC(=O)[C@@H]1CCCN1C(=O)[C@H](CCCCN)NC(=O)CC1CCC2CCCC21)C(=O)N[C@@H](CC(C)C)C(=O)O` (stereo partly specified) (X2-KPYIL-OH), the ED50 stood at 0.41 ug mouse-1 in test [1]; 15 mg/kg in test [2]; 0.1 ug mouse-1 in test [3]; 12 mg/kg in test [4]; 2.5 ug mouse-1 in test [6]. In test [8], this compound came in with a Ki of 540 nM.

In turn, `CCCCCCCCCCCCCCCCCC(=O)N[C@@H](CCCCN)C(=O)N1CCC[C@H]1C(=O)N[C@@H](Cc1ccc(O)cc1)C(=O)N[C@H](C(=O)N[C@@H](CC(C)C)C(=O)O)[C@@H](C)CC` (Stearoyl-KPYIL-OH) showed a Ki in test [8] above 10000 nM.

In test [8], Ac-KPYIL-OH displayed a Ki of 2100 nM.

Take `CC[C@H](C)[C@H](NC(=O)[C@H](Cc1ccc(O)cc1)NC(=O)[C@@H]1CCCN1C(=O)[C@H](CCCCN)NC(=O)c1cccnc1)C(=O)N[C@@H](CC(C)C)C(=O)O` (Nicotinoyl-KPYIL-OH): the affinity in test [8], expressed as Ki, was 420 nM.

The compound `CC[C@H](C)[C@H](NC(=O)[C@H](Cc1ccc(O)cc1)NC(=O)[C@@H]1CCCN1C(=O)[C@@H](N)CCCN)C(=O)N[C@@H](CC(C)C)C(=O)O` (H-[Orn]PYIL-OH) registered an inhibition constant (Ki) in test [8] of 520 nM.

For `CC[C@H](C)[C@H](NC(=O)[C@H](Cc1ccc(O)cc1)NC(=O)[C@@H]1CCCN1C(=O)[C@H](CCCCN)NC(=O)c1ccc(-c2ccccc2)cc1)C(=O)N[C@@H](CC(C)C)C(=O)O` ({Benzoyl(4-Ph)}-KPYIL-OH), the Ki in test [8] came to 880 nM.

Regarding `CC[C@H](C)[C@H](NC(=O)[C@H](Cc1ccc(O)cc1)NC(=O)[C@@H]1CCCN1C(=O)[C@H](CCCCN)NC(=O)CCCCC1SCC2NC(=O)NC21)C(=O)N[C@@H](CC(C)C)C(=O)O` (stereo partly specified) (X3-KPYIL-OH), the Ki in test [8] amounted to 290 nM.

Compound `CC[C@H](C)[C@H](NC(=O)[C@H](Cc1ccc(O)cc1)NC(=O)[C@@H]1CCCN1C(=O)[C@H](CCCCN)NC(=O)c1ccccc1)C(=O)N[C@@H](CC(C)C)C(=O)O` (Bz-KPYIL-OH) yielded a Ki in test [8] of 100 nM.
